Test results as given in US20090298814A1, “Novel salts of conjugated psychotropic drugs and processes of preparing same” (RAMOT AT TEL AVIV UNIVERISTY LTD, priority 2005, published 2009).
Where a name gives a salt, the structure may show the parent alone.

Columns and labels:
Assay type in all cases: physicochemical
[1] = Chemical stability of mesylate and maleate salts by HPLC under various storage conditions; conditions: for texture and color after storage: room temperature, open to the atmosphere
[2] = Solubility in 1% weight/volume lactic acid solution; conditions: agitated 1 hour at room temperature
Method: 1.0 gram of each of the mesylate and maleate addition salts prepared as described herein was agitated in 10 ml of 1% weight/volume lactic acid solution for 1 hour at room temperature. Any solids remaining thereafter were filtered off and the filtrate was dried under vacuum until no further change in weight was detected. […] The calculated solubility obtained for the mesylate salt was more than 100 mg/ml.

[3] = Chemical stability of mesylate and maleate salts by HPLC under various storage conditions
Method: The chemical stability of the conjugates was determined by HPLC analyses and was measured by the relative peak areas of the substance and of at least one of its degradation products. Thus, as is further exemplified in the Examples section that follows, the chemical stability of the exemplary conjugates described above was measured during time periods that typically ranged from 1 day to 24 days, whereby the conjugates were kept in sealed or open containers, with or without nitrogen atmosphere, and at a temperature range of from −20° C. to 40° C.
HPLC analyses were performed on a Water 2695 Separations Module, using a Luna C18 (2) 50 mm×4.6 mm×3 um column, a 5 μl injection volume and a 2487 dual wavelength detector under the following instrumental conditions: Mobile phase A: 0.1% formic acid; Mobile phase B: acetonitrile; Flow rate: 0.5 ml per minute; Mobile phase gradient: 0.0 minutes 90% A, 10% B, 14.0 minutes 20% A, 80% B, 15.0 minutes 90% A, 10% B and 20.0 minutes 90% A, 10% B; Run time: 20 minutes; Detection: UV at 254 nm; Column temperature: 40° C.
(§1) Stability and hygroscopicity studies of the mesylate and maleate salts of the conjugate were carried out under various conditions. The hygroscopicity of the salts was determined by following the water content of the salt using the Karl Fischer (KF) titration analysis method. The chemical stability of the salts was determined by following the appearance of the degradation product perphenazine using HPLC analyses. The samples were kept at −20° C. under nitrogen, at room temperature in an open container, at room temperature in a sealed container and at 40° C. in a sealed container. The samples were tested at the end of the preparation procedure (t=0), 72 hours after the preparation time (t=72), 1 week after the preparation time (t=168) and two weeks after the preparation time (t=336).

[4] = Hygroscopicity of mesylate and maleate salts by Karl Fischer titration
Method: Water absorption and content measurements were carried out using a Karl Fischer (KF) titrator. Karl Fischer titration is a classic method in analytical chemistry that uses calometric titration to determine the moisture content of a sample, which is specific to water. The titration reaction taking place in the presence of a base and 50:50 methanol:dichloromethane as a titration solvent.
The accurately weighted samples (near 100 mg) of the tested compound were placed in the titrator to determine the amount of sample required for measuring 10-250 μg of water, and the water content was calculated accordingly.
as §1

[5] = open container at room temperature, five weeks (about 840 hours)
[6] = Open container kept at room temperature, t = 0 hours
[7] = Open container kept at room temperature, t = 72 hours
[8] = Open container kept at room temperature, t = 168 hours
[9] = Open container kept at room temperature, t = 336 hours
[10] = Sealed container kept at 40° C., t = 0 hours
[11] = Sealed container kept at 40° C., t = 72 hours
[12] = Sealed container kept at 40° C., t = 168 hours
[13] = Sealed container kept at 40° C., t = 336 hours
[14] = Sealed container kept at room temperature, t = 0 hours
[15] = Sealed container kept at room temperature, t = 72 hours
[16] = Sealed container kept at room temperature, t = 168 hours
[17] = Sealed container kept at room temperature, t = 336 hours
[18] = Sealed container kept at −20° C. under N2, t = 0 hours
[19] = Sealed container kept at −20° C. under N2, t = 72 hours
[20] = Sealed container kept at −20° C. under N2, t = 168 hours
[21] = Sealed container kept at −20° C. under N2, t = 336 hours

NCCCC(=O)OCCN1CCN(CCCN2c3ccccc3Sc3ccc(Cl)cc32)CC1 [maleate addition salt]
purity (HPLC) [1, 5]: 94.98%
texture and color after storage ([1]; listed as maleate salt): slightly discolored, changing from yellow to light orange but stayed as a free flowing solid
calculated solubility ([2]; listed as maleate salt): 48 mg/mL
Salt peak area [3, 6]: 96.54%
Unidentified impurity peak area [3, 6]: 1.05%
perphenazine peak area [3, 6]: 1.44%
Salt peak area [3, 7]: 96.43%
Unidentified impurity peak area [3, 7]: 0.98%
perphenazine peak area [3, 7]: 1.44%
Salt peak area [3, 8]: 96.82%
Unidentified impurity peak area [3, 8]: 0.94%
perphenazine peak area [3, 8]: 1.46%
Salt peak area [3, 9]: 96.00%
Unidentified impurity peak area [3, 9]: 0.93%
perphenazine peak area [3, 9]: 1.43%
Salt peak area [3, 10]: 96.54%
Unidentified impurity peak area [3, 10]: 1.05%
perphenazine peak area [3, 10]: 1.44%
Salt peak area [3, 11]: 94.96%
Unidentified impurity peak area [3, 11]: 2.16%
perphenazine peak area [3, 11]: 1.52%
Salt peak area [3, 12]: 94.32%
Unidentified impurity peak area [3, 12]: 2.46%
perphenazine peak area [3, 12]: 1.65%
Salt peak area [3, 13]: 92.93%
Unidentified impurity peak area [3, 13]: 2.79%
perphenazine peak area [3, 13]: 1.80%
Salt peak area [3, 14]: 96.54%
Unidentified impurity peak area [3, 14]: 1.05%
perphenazine peak area [3, 14]: 1.44%
Salt peak area [3, 15]: 96.24%
Unidentified impurity peak area [3, 15]: 1.09%
perphenazine peak area [3, 15]: 1.43%
Salt peak area [3, 16]: 96.86%
Unidentified impurity peak area [3, 16]: 1.11%
perphenazine peak area [3, 16]: 1.40%
Salt peak area [3, 17]: 95.69%
Unidentified impurity peak area [3, 17]: 1.24%
perphenazine peak area [3, 17]: 1.47%
Salt peak area [3, 18]: 96.54%
Unidentified impurity peak area [3, 18]: 1.05%
perphenazine peak area [3, 18]: 1.44%
Salt peak area [3, 19]: 96.79%
Unidentified impurity peak area [3, 19]: 0.99%
perphenazine peak area [3, 19]: 1.38%
Salt peak area [3, 20]: 96.85%
Unidentified impurity peak area [3, 20]: 0.98%
perphenazine peak area [3, 20]: 1.39%
Salt peak area [3, 21]: 96.69%
Unidentified impurity peak area [3, 21]: 1.03%
perphenazine peak area [3, 21]: 1.39%
stability in words ([3]; all storage conditions of Table 8): stable in all sample forms
stability and hygroscopicity in words ([3]; as compared to the HCl and mesylate salt): more stable and less hygroscopic
perphenazine (HPLC) [3, 5]: 1.46%
Water content % [4, 6]: 0.3%
Water content % [4, 7]: 0.7%
Water content % [4, 8]: 0.8%
Water content % [4, 9]: 0.8%
Water content % [4, 10]: 0.3%
Water content % [4, 11]: 0.5%
Water content % [4, 12]: 0.7%
Water content % [4, 13]: 0.7%
Water content % [4, 14]: 0.3%
Water content % [4, 15]: 0.5%
Water content % [4, 16]: 0.8%
Water content % [4, 17]: 0.5%
Water content % [4, 18]: 0.3%
Water content % [4, 19]: 0.3%
Water content % [4, 20]: 0.3%
Water content % [4, 21]: 0.5%
water content [4, 5]: 0.91%

NCCCC(=O)OCCN1CCN(CCCN2c3ccccc3Sc3ccc(Cl)cc32)CC1 [mesylate addition salt]
texture and color after storage ([1]; listed as mesylate salt): become sticky in texture and changed color from pink to black
calculated solubility ([2]; listed as mesylate salt): more than 100 mg/ml
Salt peak area [3, 6]: 97.91%
perphenazine peak area [3, 6]: 1.39%
Salt peak area [3, 7]: 90.30%
perphenazine peak area [3, 7]: 8.53%
Salt peak area [3, 8]: 81.40%
perphenazine peak area [3, 8]: 17.68%
Salt peak area [3, 9]: 61.97%
Unidentified impurity peak area [3, 9]: 0.05%
perphenazine peak area [3, 9]: 35.74%
Salt peak area [3, 10]: 97.91%
perphenazine peak area [3, 10]: 1.39%
Salt peak area [3, 11]: 91.83%
perphenazine peak area [3, 11]: 7.33%
Salt peak area [3, 12]: 91.91%
perphenazine peak area [3, 12]: 7.56%
Salt peak area [3, 13]: 87.17%
perphenazine peak area [3, 13]: 11.63%
Salt peak area [3, 14]: 97.91%
perphenazine peak area [3, 14]: 1.39%
Salt peak area [3, 15]: 95.84%
perphenazine peak area [3, 15]: 3.17%
Salt peak area [3, 16]: 94.98%
perphenazine peak area [3, 16]: 4.52%
Salt peak area [3, 17]: 91.67%
perphenazine peak area [3, 17]: 6.88%
Salt peak area [3, 18]: 97.91%
perphenazine peak area [3, 18]: 1.39%
Salt peak area [3, 19]: 98.08%
perphenazine peak area [3, 19]: 1.34%
Salt peak area [3, 20]: 98.22%
perphenazine peak area [3, 20]: 1.26%
Salt peak area [3, 21]: 98.24%
perphenazine peak area [3, 21]: 1.21%
stability in words ([3]; sealed container at −20° C. under nitrogen atmosphere): mostly stable
Water content % [4, 6]: 0.6%
Water content % [4, 7]: 1.2%
Water content % [4, 8]: 4.0%
Water content % [4, 9]: 4.8%
Water content % [4, 10]: 0.6%
Water content % [4, 11]: 0.8%
Water content % [4, 12]: 1.2%
Water content % [4, 13]: 0.9%
Water content % [4, 14]: 0.6%
Water content % [4, 15]: 0.8%
Water content % [4, 16]: 1.3%
Water content % [4, 17]: 1.5%
Water content % [4, 18]: 0.6%
Water content % [4, 19]: 0.6%
Water content % [4, 20]: 0.7%
Water content % [4, 21]: 0.6%
